Assay results as given in patent US20060069132A1, “Azolecarboxamide herbicides” (priority 2004, published 2006).

Columns and labels:
velvetleaf [1] = assay: Test A pre-/postemergence herbicide test; type: in vivo, Abutilon theophrasti
How it was run: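 Pre: seeded sandy loam, directed soil spray, compound in non-phytotoxic solvent + surfactant. Post: 1–2-leaf plants (2–10 cm), sprayed to runoff. Greenhouse ~10 d; visual injury vs untreated, 0–100 scale.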

soybean = assay: Test C pre-/postemergence herbicide test; type: in vivo, Glycine max
How it was run: (§1)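 Visual injury scores run from 0 (no effect) to 100 (complete control), assessed relative to untreated controls 12 to 14 days after treatment in the greenhouse. Chemicals were formulated in a non-phytotoxic solvent mixture with surfactant and applied to soil after planting or to emerged plants at the 1- to 4-leaf stage.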

cocklebur = assay: Test C pre-/postemergence herbicide test; type: in vivo, Xanthium strumarium
How it was run: as §1

kochia = assay: Test C pre-/postemergence herbicide test; type: in vivo, Kochia scoparia
How it was run: as §1

velvetleaf [2] = assay: Test B pre-/postemergence herbicide test; type: in vivo, Abutilon theophrasti; conditions: for Velvetleaf plant response rating: postemergence, visual rating
How it was run: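 Pre: seeds sown, then sprayed. Post: 1–4-leaf plants (2–18 cm) sprayed at the same time. Paddy: flooded, treated at 2-leaf stage. Formulation: non-phytotoxic solvent with surfactant. Greenhouse 13–15 days; visual 0–100 score relative to controls.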

yellow nutsedge = assay: Test C pre-/postemergence herbicide test; type: in vivo, Cyperus esculentus
How it was run: as §1

bermudagrass = assay: Test C pre-/postemergence herbicide test; type: in vivo, Cynodon dactylon
How it was run: as §1

large crabgrass = assay: Test C pre-/postemergence herbicide test; type: in vivo, Digitaria sanguinalis
How it was run: as §1

[3] = Postemergence, 500 g ai/ha, 0 to 100 scale, 0 no effect, 100 complete control
[4] = Postemergence, 2000 g ai/ha, 0 to 100 scale, 0 no effect, 100 complete control
[5] = Preemergence, 500 g ai/ha, visual rating, 0 to 100 scale (0 no effect, 100 complete control)
[6] = Preemergence, 2000 g ai/ha, visual rating, 0 to 100 scale (0 no effect, 100 complete control)
[7] = Postemergence, 500 g ai/ha, scale 0 to 100
[8] = Postemergence, 250 g ai/ha, scale 0 to 100, 0 no effect, 100 complete control
[9] = postemergence, 125 g ai/ha, scale 0 to 100
[10] = postemergence, 62 g ai/ha, scale 0 to 100
[11] = Postemergence, 500 g ai/ha, visual rating after 13 to 15 days, scale 0 (no effect) to 100 (complete control)
[12] = 125 g ai/ha, scale 0 (no effect) to 100 (complete control)
[13] = preemergence, 125 g ai/ha, 0 to 100 scale, 0 is no effect, 100 is complete control
[14] = 31 g ai/ha, preemergence, scale 0 to 100
[15] = 125 g ai/ha, scale 0 (no effect) to 100 (complete control), visual, 12 to 14 days, preemergence
[16] = 250 g ai/ha, scale 0 to 100 (0 no effect, 100 complete control), visual, 12 to 14 days, preemergence
[17] = postemergence, 31 g ai/ha, scale 0 to 100

CCCCOC(=O)c1cccc(NC(=O)c2cc(C(C)(C)C)nn2CC)c1 [Compound 86]
Velvetleaf plant response rating (velvetleaf [1]; [3]): 40
Plant response rating, Velvetleaf (velvetleaf [1]; [4]): 30
Velvetleaf plant response rating (velvetleaf [1]; [5]): 0
Velvetleaf plant response rating (velvetleaf [1]; [6]): 10
Soybean plant response rating (soybean; [7]): 95
Plant response rating, Soybean (soybean; [8]): 90
Plant response rating, Soybean (soybean; [9]): 70
Plant response rating, Soybean (soybean; [10]): 45
Cocklebur plant response rating (cocklebur; [7]): 100
Plant response rating, Cocklebur (cocklebur; [8]): 100
Plant response rating, Cocklebur (cocklebur; [9]): 95
Plant response rating, Cocklebur (cocklebur; [10]): 85
Kochia plant response rating (kochia; [7]): 95
Plant response rating, Kochia (kochia; [8]): 95
Plant response rating, Kochia (kochia; [9]): 85
Plant response rating, Kochia (kochia; [10]): 80
Plant response rating, Velvetleaf (velvetleaf [2]; [11]): 70
Velvetleaf plant response rating (velvetleaf [2]; [12]): 60
Plant response rating, Velvetleaf (velvetleaf [2]; [13]): 0
Nutsedge, Yellow plant response rating (yellow nutsedge; [7]): 30
Plant response rating, Nutsedge, Yellow (yellow nutsedge; [8]): 10
Plant response rating, Nutsedge, Yellow (yellow nutsedge; [9]): 5
Plant response rating, Nutsedge, Yellow (yellow nutsedge; [10]): 0
Bermudagrass plant response rating (bermudagrass; [7]): 100
Plant response rating, Bermudagrass (bermudagrass; [8]): 30
Plant response rating, Bermudagrass (bermudagrass; [10]): 10
Crabgrass, Large plant response rating (large crabgrass; [7]): 40
Plant response rating, Crabgrass, Large (large crabgrass; [8]): 10
Plant response rating, Crabgrass, Large (large crabgrass; [10]): 10

C=Cn1nc(C(C)(C)C)cc1C(=O)Nc1cccc(C(C)=NO)c1 [Compound 114]
Velvetleaf plant response rating (velvetleaf [1]; [3]): 20
Plant response rating, Velvetleaf (velvetleaf [1]; [4]): 20
Velvetleaf plant response rating (velvetleaf [1]; [5]): 35
Velvetleaf plant response rating (velvetleaf [1]; [6]): 60
Plant response rating, Soybean (soybean; [14]): 60
Plant response rating (0 = no effect, 100 = complete control), Soybean (soybean; 62 g ai/ha, preemergence): 70
Plant response rating, Soybean (soybean; [8]): 70
Plant response rating, Soybean (soybean; [9]): 70
Plant response rating, Soybean (soybean; [10]): 70
Plant response rating, Cocklebur (cocklebur; [14]): 0
Plant response rating (0 = no effect, 100 = complete control), Cocklebur (cocklebur; 62 g ai/ha, preemergence): 20
Plant response rating, Cocklebur (cocklebur; [15]): 20
Plant response rating, Cocklebur (cocklebur; [16]): 30
Plant response rating, Cocklebur (cocklebur; [8]): 30
Plant response rating, Cocklebur (cocklebur; [9]): 30
Plant response rating, Cocklebur (cocklebur; [17]): 30
Plant response rating, Cocklebur (cocklebur; [10]): 30
Plant response rating, Kochia (kochia; [14]): 90
Plant response rating (0 = no effect, 100 = complete control), Kochia (kochia; 62 g ai/ha, preemergence): 90
Plant response rating, Kochia (kochia; [15]): 90
Plant response rating, Kochia (kochia; [8]): 100
Plant response rating, Kochia (kochia; [9]): 80
Plant response rating, Kochia (kochia; [10]): 80
Plant response rating, Velvetleaf (velvetleaf [2]; 500 g ai/ha, visual rating 0-100, 0 no effect, 100 complete control, preemergence): 60
Plant response rating, Velvetleaf (velvetleaf [2]; [11]): 60
Velvetleaf plant response rating (velvetleaf [2]; [12]): 50
Plant response rating, Velvetleaf (velvetleaf [2]; [13]): 40
Plant response rating, Nutsedge, Yellow (yellow nutsedge; [14]): 0
Plant response rating (0 = no effect, 100 = complete control), Nutsedge, Yellow (yellow nutsedge; 62 g ai/ha, preemergence): 0
Plant response rating, Nutsedge, Yellow (yellow nutsedge; [15]): 0
Plant response rating, Nutsedge, Yellow (yellow nutsedge; [8]): 10
Plant response rating, Nutsedge, Yellow (yellow nutsedge; [9]): 0
Plant response rating, Nutsedge, Yellow (yellow nutsedge; [10]): 0
Plant response rating, Bermudagrass (bermudagrass; [14]): 10
Plant response rating (0 = no effect, 100 = complete control), Bermudagrass (bermudagrass; 62 g ai/ha, preemergence): 50
Plant response rating, Bermudagrass (bermudagrass; [15]): 90
Plant response rating, Bermudagrass (bermudagrass; [16]): 100
Plant response rating, Bermudagrass (bermudagrass; [8]): 90
Plant response rating, Bermudagrass (bermudagrass; [9]): 90
Plant response rating, Bermudagrass (bermudagrass; [17]): 20
Plant response rating, Bermudagrass (bermudagrass; [10]): 60
Plant response rating, Crabgrass, Large (large crabgrass; [14]): 100
Plant response rating (0 = no effect, 100 = complete control), Crabgrass, Large (large crabgrass; 62 g ai/ha, preemergence): 100
Plant response rating, Crabgrass, Large (large crabgrass; [15]): 100
Plant response rating, Crabgrass, Large (large crabgrass; [16]): 100
Plant response rating, Crabgrass, Large (large crabgrass; [8]): 100
Plant response rating, Crabgrass, Large (large crabgrass; [9]): 100
Plant response rating, Crabgrass, Large (large crabgrass; [10]): 20
